Source: patent US20230286973A1, “PROTEIN SECRETION INHIBITORS” (KEZAR LIFE SCIENCES, priority 2020, published 2023)

Key:
[1] = Liver Microsome Stability Assay (mouse); conditions: mouse liver microsomes, with NADPH, 1.0 uM compound
Experimental: (§1) Stability of a compound was assessed in the presence of liver microsomes from various sources—mouse, rat, monkey and human liver microsomes. 1.0 uM compound, 0.4% DMSO in 0.1 M Potassium Phosphate with 1.0 mg/mL liver microsomes, were incubated at 37° C. with or without 1 mM NADPH. The samples were quenched at 0, and 30 minutes.

[2] = tested on: multiple myeloma cell line NCI-H929; test: H929 Cell Viability Assay; type: cell-based, human; conditions: Homo sapiens, NCI-H929, 48 h, NCI-H929 cells, Celltiter-Glo
In short: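 Luminescent ATP detection (CellTiter-Glo) after 48 hours of compound exposure measures viability. Cells were plated in RPMI 1640 containing 10% fetal bovine serum and kept at 37° C under 5% CO2.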

[3] = tested on: HER3-ss+4aa/Gaussia Luciferase; test: Dox-Induced Her3-ss-Gluc Assay; type: cell-based; conditions: 24 hr Dox induction; 293FRT/TO cells; mean; read-out: 24 hr Dox Inducible Her3(ss + 4)Gluc 293FRT/TO: Mean IC50
In short: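 Cells were seeded a day ahead, then given compound diluted in DMSO/media with doxycycline to induce expression of the HER3 signal sequence (+4 aa)–Gaussia luciferase fusion. Incubation was at 37° C., 5% CO2, in a stable Flp-In 293 T-REx line.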

[4] = tested on: IL-2-FL/Gaussia Luciferase; test: Dox Induced IL2-FL-Gluc Assay; type: cell-based; conditions: for IC50: 24 hr Dox induction, 293FRT/TO cells, mean, read-out: 24 hr Dox Inducible IL2FLGluc 293FRT/TO: Mean IC50; for 24 hr Dox Inducible IL2FLGluc 293FRT/TO: IL2/PD1: ratio of IL2FLGluc IC50 to PD1ssGluc IC50, '<=>' given where both are I.A.
In short: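 Cells are plated one day ahead, then receive compound dilutions in DMSO/media with doxycycline and incubate at 37° C, 5% CO2. They are Flp-In 293 T-REx cells expressing a full-length IL-2 (amino acids 1-153)–Gaussia luciferase fusion under T-REx control.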

[5] = Liver Microsome Stability Assay (human); conditions: human liver microsomes, with NADPH, 1.0 uM compound
Experimental: as §1

[6] = Liver Microsome Stability Assay (rat); conditions: rat liver microsomes, with NADPH, 1.0 uM compound
Experimental: as §1

[7] = tested on: PD1-ss+10aa/Gaussia Luciferase; test: Dox-Induced PD1-ss-Gluc Assay; type: cell-based; conditions: 24 hr Dox induction; 293FRT/TO cells; mean; read-out: 24 hr Dox Inducible PD1ssGluc 293FRT/TO: Mean IC50
In short: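 The cell line was made by transfecting Flp-In 293 T-REx cells with a PD1 signal sequence+10aa–Gaussia luciferase fusion under T-REx control and selecting with hygromycin and blasticidin. Cells were seeded, and next day compound plus doxycycline was added at 37 °C, 5% CO2.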

[8] = Liver Microsome Stability Assay (monkey); conditions: monkey liver microsomes, with NADPH, 1.0 uM compound
Experimental: as §1

[9] = tested on: multiple myeloma cell line U266B1; test: U266 Cell Viability Assay; type: cell-based, human; conditions: Homo sapiens, U-266, 48 h, U266B1 cells, Celltiter-Glo
In short: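 Steps: culture in RPMI 1640 plus 10% FBS and 2 mM glutamine; plate and add compound dilutions; incubate 48 hours at 37° C., 5% CO2; add CellTiter-Glo and quantify luciferase signal.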

[10] = tested on: TNFα-FL/Gaussia Luciferase; test: Dox Induced TNFα-FL-Gluc Assay; type: cell-based; conditions: for IC50: 24 hr Dox induction, 293FRT/TO cells, mean, read-out: 24 hr Dox Inducible TNFaFLGluc 293FRT/TO: Mean IC50; for 24 hr Dox Inducible TNFaFLGluc 293FRT/TO: TNF/PD1: ratio of TNFaFLGluc IC50 to PD1ssGluc IC50, '<=>' given where both are I.A.
In short: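 Stereoisomer mixtures were tested where stereochemistry is not drawn. Induction used doxycycline added together with compound dilutions in DMSO/media to Flp-In 293 T-REx cells carrying a T-REx-regulated TNFα (aa 1-233)-Gaussia luciferase construct, then incubated at 37 °C, 5% CO2.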

Structure (SMILES) | Liver Microsome Stability (Multiple Species): Mouse - % Remaining after 30 min w/NADPH [1] [%] | EC50 [2] [µM] | IC50 [3] [µM] | IC50 [4] [µM] | 24 hr Dox Inducible IL2FLGluc 293FRT/TO: IL2/PD1 [4] | Liver Microsome Stability (Multiple Species): Human - % Remaining after 30 min w/NADPH [5] [%] | Liver Microsome Stability (Multiple Species): Rat - % Remaining after 30 min w/NADPH [6] [%] | IC50 [7] [µM] | Liver Microsome Stability (Multiple Species): Monkey - % Remaining after 30 min w/NADPH [8] [%] | EC50 [9] [µM] | IC50 [10] [µM] | 24 hr Dox Inducible TNFaFLGluc 293FRT/TO: TNF/PD1 [10]
CN(C)C(=O)CCCn1cccc1C(=O)Nc1nc([C@H]2CCCN2c2ccccc2)cs1 [Compound C61, (R)-1-(4-(dimethylamino)-4-oxobutyl)-N-(4-(1-phenylpyrrolidin-2-yl)thiazol-2-yl)-1H-pyrrole-2-carboxamide] | 0.16 | > 25 | 20.4 | 16.7 | 1.9 | 0.27 | 3.4 | 8.96 | 0.03 | > 25 | > 25 | >2.79
O=C(Nc1nc([C@H]2CCCN2c2ccccc2)cs1)c1cccn1CC1COC1 [Compound C84, (R)-1-(oxetan-3-ylmethyl)-N-(4-(1-phenylpyrrolidin-2-yl)thiazol-2-yl)-1H-pyrrole-2-carboxamide] | 22.3 | > 25 | 6.59 | > 25 | >5.9 | 31.5 | 4.2 | 4.25 | 0.28 | > 25 | > 25 | >5.88
CCc1ccc(N2CCC[C@@H]2c2csc(NC(=O)c3cccn3CC3CCOCC3)n2)nc1 [Compound C85, (R)-N-(4-(1-(5-ethylpyridin-2-yl)pyrrolidin-2-yl)thiazol-2-yl)-1-((tetrahydro-2H-pyran-4-yl)methyl)-1H-pyrrole-2-carboxamide] | 21.3 | 6.12 | 0.257 | 0.279 | 2.2 | 1.61 | 11.2 | 0.126 | 0.21 | > 25 | 1.2 | 9.53
N#Cc1ccccc1Cn1cccc1C(=O)Nc1nc([C@H]2CCCN2c2ccccc2)cs1 [Compound C86, (R)-1-(2-cyanobenzyl)-N-(4-(1-phenylpyrrolidin-2-yl)thiazol-2-yl)-1H-pyrrole-2-carboxamide] | 43.5 | > 25 | 1.11 | 2.38 | 0.8 | 27.3 | 20.2 | 2.98 | 15 | > 25 | > 25 | >8.38
C[C@@H](CC#N)Cn1cccc1C(=O)Nc1nc([C@H]2CCCN2c2ccccc2)cs1 [Compound C87, 1-((S)-3-cyano-2-methylpropyl)-N-(4-((R)-1-phenylpyrrolidin-2-yl)thiazol-2-yl)-1H-pyrrole-2-carboxamide] | 14.2 | 4.05 | 0.129 | 0.238 | 3 | 12.8 | 6.85 | 0.0784 | 0.21 | > 25 | 0.731 | 9.32
C[C@H](CC#N)Cn1cccc1C(=O)Nc1nc([C@H]2CCCN2c2ccccc2)cs1 [Compound C88, 1-((R)-3-cyano-2-methylpropyl)-N-(4-((R)-1-phenylpyrrolidin-2-yl)thiazol-2-yl)-1H-pyrrole-2-carboxamide] | 14.8 | 21.8 | 0.942 | 1.9 | 3.3 | 15.7 | 5.31 | 0.581 | 1.91 | > 25 | 5.93 | 10.2
CC(C#N)CCn1cccc1C(=O)Nc1nc([C@H]2CCCN2c2ccccc2)cs1 (stereo partly drawn) [Compound C89, 1-(3-cyanobutyl)-N-(4-((R)-1-phenylpyrrolidin-2-yl)thiazol-2-yl)-1H-pyrrole-2-carboxamide] | 16.5 | > 25 | 1.79 | 2.86 | 2.4 | 24 | 5.16 | 1.18 | 0.31 | > 25 | 14.5 | 12.3
CC(CCC#N)n1cccc1C(=O)Nc1nc([C@H]2CCCN2c2ccccc2)cs1 (stereo partly drawn) [Compound C90, 1-(4-cyanobutan-2-yl)-N-(4-((R)-1-phenylpyrrolidin-2-yl)thiazol-2-yl)-1H-pyrrole-2-carboxamide] | 1.54 | > 25 | 2.39 | 4.01 | 2.4 | 1.77 | 7.22 | 1.65 | 1.77 | > 25 | 16.1 | 9.76
